Results on 6 compounds are retold here after publication PMC6609034, “Unraveling the role of the secretor antigen in human rotavirus attachment to histo-blood group antigens” (PLoS Pathogens, 2019).

For assay [1], the system named is VP8* P[4]. Description: ELISA-like binding assay to biotinylated HBGAs. The arrangement: species or system human rotavirus. Conditions: biotinylated PAA glycan 2 μg/ml, VP8* 10 μg/ml. The text has this: (§1) A panel of biotinylated sugar antigens including Le^a, Le^b, Le^c (lacto-N-biose; LNB), H type-1, H type-2 and blood group A and B trisaccharides were purchased from Glyconz (Fig 1 and S1 Table). These glycans are biotinylated neoglyconjugates of a poly[N-(2-hydroxyethyl)acrylamide] (PAA) with a size from 30 to 50 KDa. This forms a flexible polymer ideal for a multivalent presentation of glycans. Immobilized streptavidin F96 black plates (Nunc) were coated with the biotinylated oligosaccharides (2 μg/ml) in milli-Q water and incubated during 1 hour at 37°C. After functionalization the plates were washed once with PBS containing 0.05% of Tween 20 (PBS-T) and the VP8* proteins were added (10 μg/ml) and incubated at 4°C overnight. After three washes with PBS-T, a rabbit polyclonal antibody anti GST (1:1,000) (Abcam) was added and the plates were incubated one hour at 37°C. Then, the plates were washed three times with PBS-T and incubated for 1 h at 37°C with 1:10,000 dilution of horseradish peroxidase (HRP)-conjugated goat anti-rabbit (Abcam). After three washes with PBS-T, the binding was detected using QuantaBlue reagent (ThermoFisher) kit, as recommended by the manufacturer. Fluorescence units were registered by a MultiScan microplate reader. All the binding assays were performed in triplicate.
A general note: In an ELISA, binding on a coated surface is turned into a signal by an enzyme label.

For assay [2], the system named is VP8* P[8]. Description: ELISA-like binding assay to biotinylated HBGAs. The settings on record: biotinylated PAA glycan 2 μg/ml, VP8* 10 μg/ml. Also noted: species or system human rotavirus.
Excerpt: as §1

Assay [3] has as its system VP8* P[8]c binding to the H1 antigen. As to the kind of experiment: Binding blocking assay, immobilized H1 antigen. Also noted: species or system human rotavirus. The settings on record: soluble sugar at 20 mM. The method, then: (§2) To confirm the binding of the VP8* from the P[8] genotype to the H type-1 precursor LNB, a blocking assay was performed using soluble LNB and its related disaccharide galacto-N-biose (Gal-β-1,3-GalNAc; GNB) produced and purified in our laboratory as previously described.
(§3) Streptavidin microtiter plates were coated with biotinylated H type-1 antigen or LNB at 2 μg/ml with water and incubated for 1 hour at 37°C, followed by an overnight incubation at 4°C. Blocking assays were performed in parallel, using glass tubes containing the P[8]c and P[8]Wa VP8* protein at their EC50 for each ligand and 20 mM of each of the soluble disaccharides (LNB and GNB) and monosaccharides (D-galactose, GlcNAc and GalNAc). A positive binding control without sugar was also included. The tubes containing the mixes of VP8* with sugars were maintained 1 hour at 37°C, followed by an overnight incubation at 4°C. The next day the coated streptavidin plates were washed with PBS-T, the VP8*-sugar solutions were added to the plates and incubated during 4 hours at 4°C. The plates were washed three times with PBS-T and detection of the interactions was performed as described above. The results are presented as the percentage (%) of binding of each condition compared to the binding of the positive binding control (without blocking sugar). All experiments were performed in triplicate.

Assay [4] has as its system VP8* P[11]. Description: ELISA-like binding assay to biotinylated HBGAs. Also noted: species or system rotavirus. The settings on record: biotinylated PAA glycan 2 μg/ml, VP8* 10 μg/ml.
Excerpt: as §1

In assay [5] the test system is VP8* P[25]. Description: ELISA-like binding assay to biotinylated HBGAs. The arrangement: species or system rotavirus. Conditions: biotinylated PAA glycan 2 μg/ml, VP8* 10 μg/ml.
Excerpt: as §1

The subject of assay [6] is VP8* P[9]. As to the kind of experiment: ELISA-like binding assay to biotinylated HBGAs. Also noted: species or system human rotavirus. Conditions: biotinylated PAA glycan 2 μg/ml, VP8* 10 μg/ml.
Excerpt: as §1

Assay [7] relates to VP8* P[14]. As to the kind of experiment: ELISA-like binding assay to biotinylated HBGAs. Also noted: species or system human rotavirus. The settings on record: biotinylated PAA glycan 2 μg/ml, VP8* 10 μg/ml.
Excerpt: as §1

Assay [8] has as its system VP8* P[8]c binding to LNB. As to the kind of experiment: Binding blocking assay, immobilized LNB. Also noted: species or system human rotavirus. The settings on record: soluble sugar at 20 mM. The procedure:
as §2, §3

As for “Fuc-α1,2-Gal-β1,3-[Fuc-α1,4-]GlcNAc [Lewis^b]”, the “binding (ELISA-like)” value in assay [1] and in assay [2] was “very low or absence of binding” in each case.
As to `O=C[C@H](O)[C@@H](O)[C@@H](O)[C@H](O)CO` [D-galactose], the “reduction in the binding to the H1 antigen” value in assay [3] stood at 14.7%.
For the compound `CC(=O)NC1C(O)OC(CO)C(OC2OC(CO)C(O)C(O)C2OC2OC(C)C(O)C(O)C2O)C1O` (stereo not drawn) [H2, Fuc-α1,2-Gal-β1,4-GlcNAc], the “binding (ELISA-like)” value in assay [4] is “recognized”.
Turning to `C[C@H](O)[C@@H](O)[C@@H](O)[C@H](O)C=O` [L-fucose], the “effect on the binding of VP8* to the H1 antigen” value in assay [3] was “significantly increased the binding”.
As to GlcNAc-α1,3-(Fucα1,2)-Gal [Atri], the “binding (ELISA-like)” value in assay [5] was “recognized”; in assay [6], “recognized”; in assay [2], “low binding”; in assay [7] it was “recognized”.
Regarding `CC(=O)N[C@H]1C(O)O[C@H](CO)[C@H](O)[C@@H]1O[C@@H]1O[C@H](CO)[C@H](O)[C@H](O)[C@H]1O` (stereo partly drawn) [GNB, Gal-β1,3-GalNAc], the “reduction of the binding of VP8* P[8]c to LNB” value in assay [8] is on record as 44.1%. The “reduction in the binding to the H1 antigen” value in assay [3] was determined as 30.1%.
